Source: patent US20230046947A1, “REACTIVE CONJUGATES” (Debiopharm Research & Manufacturing S.A., priority 2019, published 2023)
Where a SMILES comes first, the peptide text is derived from it. Bridges are numbered along the chain shown (N, C = ends). Where no end group is shown, it is not given here. [ ]: non-standard residue; d: D form. PEG20 = NCCOCCOCCOCCOCCOCCOCCOCCOCCOCCOCCOCCOCCOCCOCCOCCOCCOCCOCCOCCOCCC(=O)O

Target: T1, Fc region of trastuzumab (Homo sapiens, UniProt P01857)
T1 construct: made in house; host or cells: recombinant CHO cell lines
Assay: Competitive FP binding assay against Fc-III-FAM
Conditions: for binding to the Fc region of trastuzumab (in words): competitive FP against Fc-III-FAM
Procedure: The competitive FP measurements were performed on SpectraMax Paradigm Multi-Mode Detection Platform (Molecular Devices) in flat-bottom 384-well Corning microplates (Merck KGaA), using excitation and emission wavelengths of 485 nm and 535 nm, respectively. The acquisition time was 700 milliseconds and the read height was 1 mm. All reagents used in the assay were diluted in PBS containing 0.05% Tween 20.
The mixture was incubated at 27° C. for 15 min and the fluorescence signal was red on a Spectramax Paradigm. All sample preparations were done in PBS pH 7.4 or 7.0 containing 0.05% Tween. Each experiment was performed in triplicate.

IC50	binding to the Fc region of trastuzumab (in words)	Compound
0.061 ± 0.033 µM	high affinity	CC(C)C[C@@H]1NC(=O)[C@H](Cc2c[nH]cn2)NC(=O)[C@H](Cc2c[nH]c3ccccc23)NC(=O)[C@H](C)NC(=O)[C@@H](NC(=O)[C@H](CC(=O)O)NC(=O)[C@@H]2CCCN2C(=O)[C@@H]2CCCN2C(=O)[C@@H]2CCCN2C(=O)[C@@H]2CCCN2C(=O)[C@@H]2CCCN2C(=O)[C@@H]2CCCN2C(=O)CNC(=O)CNC(=O)[C@@H](N)CO)CSSC[C@@H](C(=O)N[C@H](C(N)=O)[C@@H](C)O)NC(=O)[C@H](Cc2c[nH]c3ccccc23)NC(=O)[C@H](C(C)C)NC(=O)[C@H](CC(C)C)NC(=O)[C@H](CCC(=O)O)NC(=O)CNC1=O [Compound 2] (H-SGGPPPPPPDCAWHLGELVWCT-NH2; disulfide 11-21 (inferred))
36.5 ± 15.6 µM	–	CC(C)C[C@@H]1NC(=O)[C@H](Cc2c[nH]cn2)NC(=O)[C@H](Cc2c[nH]c3ccccc23)NC(=O)[C@H](C)NC(=O)[C@@H](NC(=O)[C@@H](N)CC(=O)O)CSSC[C@@H](C(=O)N[C@H](C(N)=O)[C@@H](C)O)NC(=O)[C@H](C)NC(=O)[C@H](Cc2c[nH]c3ccccc23)NC(=O)[C@H](CC(C)C)NC(=O)[C@H](CCC(=O)O)NC(=O)CNC1=O [Compound 13] (H-DCAWHLGELWACT-NH2; disulfide 2-12 (inferred))
10.7 ± 11.9 µM	impaired peptide binding	CC(C)C[C@H](NC(=O)[C@H](Cc1c[nH]cn1)NC(=O)[C@H](Cc1c[nH]c2ccccc12)NC(=O)[C@H](C)NC(=O)[C@H](C)NC(=O)[C@H](CC(=O)O)NC(=O)CCOCCOCCOCCOCCOCCOCCOCCOCCOCCOCCOCCOCCOCCOCCOCCOCCOCCOCCOCCOCCN)C(=O)NCC(=O)N[C@@H](CCC(=O)O)C(=O)N[C@@H](CC(C)C)C(=O)N[C@H](C(=O)N[C@@H](Cc1c[nH]c2ccccc12)C(=O)N[C@@H](C)C(=O)N[C@H](C(N)=O)[C@@H](C)O)C(C)C [Compound 16] (H-[PEG20]DAAWHLGELVWAT-NH2)
–	impaired peptide binding	NH2—(PEG)20—CH2CH2—CO—DCAWHLGELWACT—NH2 ([PEG20]DCAWHLGELWACT-NH2; disulfide 3-13 (inferred)) [Compound 15]
